Data on 40 molecules can be found in patent publication US7790751B2, “Azinyl-3-sulfonylindazole derivatives as 5-hydroxytryptamine-6 ligands” (Wyeth LLC, priority 2005, dated 2010).

Where a name gives a salt, the structure may show the parent alone.

In one series the target is human cloned 5-HT6 receptors (Homo sapiens, UniProt P50406). Put plainly: Evaluation of 5-HT6 binding affinity of test compounds ([3H]-LSD displacement).
human cloned 5-HT6 receptors, sequence (P50406 whole entry): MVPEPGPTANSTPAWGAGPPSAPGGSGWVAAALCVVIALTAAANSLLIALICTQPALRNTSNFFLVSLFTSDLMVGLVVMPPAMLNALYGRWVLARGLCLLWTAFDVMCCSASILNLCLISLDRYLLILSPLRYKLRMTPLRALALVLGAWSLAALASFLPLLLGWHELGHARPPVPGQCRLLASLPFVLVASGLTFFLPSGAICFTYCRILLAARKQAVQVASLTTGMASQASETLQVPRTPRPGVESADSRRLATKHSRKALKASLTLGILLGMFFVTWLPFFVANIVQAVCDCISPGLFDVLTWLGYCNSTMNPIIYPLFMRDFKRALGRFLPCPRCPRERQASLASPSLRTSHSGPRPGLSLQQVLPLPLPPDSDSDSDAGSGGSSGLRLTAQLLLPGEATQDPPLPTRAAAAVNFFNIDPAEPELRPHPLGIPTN
With `O=S(=O)(c1cccc2ccccc12)c1n[nH]c2ccc(OCC3CCCNC3)cc12` (centres unmarked) [Example 28, 3-(1-Naphthylsulfonyl)-5-(piperidin-3-ylmethoxy)-1H-indazole], the Ki (commonly a dissociation constant, usually derived from enzyme kinetics or from competition with a known ligand) was in the range of 0.01 to 10 nM. Still for that read-out and setting: next, `O=S(=O)(c1ccc(F)cc1)c1n[nH]c2ccc(NC3CCNCC3)cc12` [Example 46, 3-[(4-fluorophenyl)sulfonyl]-N-piperidin-4-yl-1H-indazol-5-amine]: 0.01 to 10 nM. Take `O=S(=O)(c1ccc2ccccc2c1)c1n[nH]c2ccc(NC3CCNCC3)cc12` [Example 44, 3-(2-naphthylsulfonyl)-N-piperidin-4-yl-1H-indazol-5-amine]: the Ki was in the range of 0.01 to 10 nM. On the same count and under the same terms, next, `COc1ccc(S(=O)(=O)c2n[nH]c3ccc(NC4CCNCC4)cc23)cc1` [Example 50, 3-[(4-methoxyphenyl)sulfonyl]-N-piperidin-4-yl-1H-indazol-5-amine]: 0.01 to 10 nM; `CCCN1CCC(Oc2ccc3[nH]nc(S(=O)(=O)c4cccc5ccccc45)c3c2)CC1` [Example 19, 3-(1-Naphthylsulfonyl)-5-(1-propylpiperidin-4-yloxy)-1H-indazole Hydrochloride]: 0.01 to 10 nM; `O=S(=O)(c1ccc(Cl)cc1)c1n[nH]c2ccc(OC3CCNCC3)cc12` [Example 11, 3-[(4-chlorophenyl)sulfonyl]-5-(piperidin-4-yloxy)-1H-indazole]: 11 to 25 nM. On the same count and under the same terms, next, `O=S(=O)(c1cccc2ccccc12)c1n[nH]c2cc(NC3CCNCC3)ccc12` [Example 33, 3-(1-Naphthylsulfonyl)-N-piperidin-4-yl-1H-indazol-6-amine Dihydrochloride]: over 45 nM; `O=S(=O)(c1cccc(Cl)c1)c1n[nH]c2ccc(OC3CCNCC3)cc12` [Example 10, 3-[(3-chlorophenyl)sulfonyl]-5-(piperidin-4-yloxy)-1H-indazole]: 0.01 to 10 nM. `CCN1CCC(Oc2ccc3[nH]nc(S(=O)(=O)c4cccc5ccccc45)c3c2)C1` (centres unmarked) [Example 25, 5-[1-(Ethylpyrrolidin-3-yl)oxy]-3-(1-napthylsulfonyl)-1H-indazole Hydrochloride] returned a Ki of 0.01 to 10 nM. On the same count and under the same terms, next, `CN1CCC(Oc2ccc3[nH]nc(S(=O)(=O)c4cccc5ccccc45)c3c2)CC1` [Example 21, 5-(1-Methylpiperidin-4-yloxy)-3-(1-naphthylsulfonyl)-1H-indazole Hydrochloride]: 0.01 to 10 nM. Molecule `O=S(=O)(c1cccc2ccccc12)c1n[nH]c2cccc(NC3CCNCC3)c12` [Example 39, 3-(1-Naphthylsulfonyl)-N-piperidin-4-yl-1H-indazol-4-amine Dihydrochloride] came in with a Ki of 0.01 to 10 nM.

As for `O=S(=O)(c1cccc2ccccc12)c1n[nH]c2ccc(OC3CCNC3)cc12` (centres unmarked) [Example 1, 3-(Naphthalene-1-sulfonyl)-5-(pyrrolidin-3-yloxy)-1H-indazole], the inhibition constant (Ki) lay in the range of 0.01 to 10 nM. Consider `CCN1CCC(Oc2ccc3[nH]nc(S(=O)(=O)c4cccc5ccccc45)c3c2)CC1` [Example 24, 5-[1-(Ethylpiperidin-4-yl)oxy]-3-(1-naphthylsulfonyl)-1H-indazole Hydrochloride], for which the Ki was 0.01 to 10 nM.

In turn, `O=S(=O)(c1cccc(C(F)(F)F)c1)c1n[nH]c2ccc(OC3CCNCC3)cc12` [Example 15, 5-(piperidin-4-yloxy)-3-{[3-(trifluoromethyl)phenyl]sulfonyl}-1H-indazole] gave a Ki of 0.01 to 10 nM. Still for that read-out and setting: under `O=S(=O)(c1cccc2ccccc12)c1n[nH]c2ccc(NCC3CCNCC3)cc12` [Example 31, 3-(1-Naphthylsulfonyl)-N-(piperidin-4-ylmethyl)-1H-indazol-5-amine Dihydrochloride] stands 0.01 to 10 nM.

As for `O=S(=O)(c1cccc2ccccc12)c1n[nH]c2cc(NCC3CCNCC3)ccc12` [Example 35, 3-(1-Naphthylsulfonyl)-N-(piperidin-4-ylmethyl)-1H-indazol-6-amine Dihydrochloride], the Ki lay in the range of 36 to 45 nM. The molecule `COc1ccc(S(=O)(=O)c2n[nH]c3ccc(OC4CCNCC4)cc23)cc1` [Example 14, 3-[(4-methoxyphenyl)sulfonyl]-5-(piperidin-4-yloxy)-1H-indazole] came in with a Ki of over 45 nM.

In the case of `O=C(Nc1cccc2c(S(=O)(=O)c3cccc4ccccc34)n[nH]c12)C1CCCNC1` (centres unmarked) [Example 55, N-[3-(1-Naphthylsulfonyl)-1H-indazol-7-yl]piperidine-3-carboxamide Dihydrochloride], the Ki lay within 0.01 to 10 nM.

In turn, `CC(C)c1ccc(S(=O)(=O)c2n[nH]c3ccc(OC4CCNCC4)cc23)cc1` [Example 17, 3-[(4-isopropylphenyl)sulfonyl]-5-(piperidin-4-yloxy)-1H-indazole] displayed a Ki of 11 to 25 nM. On the same count and under the same terms, under `O=S(=O)(c1cccc(Cl)c1)c1n[nH]c2ccc(NC3CCNCC3)cc12` [Example 42, 3-[(3-chlorophenyl)sulfonyl]-N-piperidin-4-yl-1H-indazol-5-amine] stands 0.01 to 10 nM; under `O=S(=O)(c1cccc2ccccc12)c1n[nH]c2ccc(OC3CCN(CCc4ccccc4)CC3)cc12` [Example 23, 3-(1-Naphthylsulfonyl)-5-{[1-(2-phenylethyl)piperidin-4-yl]oxy}-1H-indazole Hydrochloride], 11 to 25 nM; under `CCCCN1CCC(Oc2ccc3[nH]nc(S(=O)(=O)c4cccc5ccccc45)c3c2)CC1` [Example 20, 5-(1-Butylpiperidin-4-yloxy)-3-(1-naphthylsulfonyl)-1H-indazole Hydrochloride], 0.01 to 10 nM. Still for that read-out and setting: next, `O=S(=O)(c1cccc2ccccc12)c1n[nH]c2ccc(OC3CCN(CCc4ccccc4)C3)cc12` (centres unmarked) [Example 26, 3-(1-Naphthylsulfonyl)-5-{[1-(2-phenylethyl)pyrrolidin-3-yl]oxy}-1H-indazole Hydrochloride]: 11 to 25 nM; `O=S(=O)(c1cccc2ccccc12)c1n[nH]c2ccc(NC3CCCNC3)cc12` (centres unmarked) [Example 32, 3-(1-Naphthylsulfonyl)-N-piperidin-3-yl-1H-indazol-5-amine Dihydrochloride]: 0.01 to 10 nM; `O=S(=O)(c1cccc2ccccc12)c1n[nH]c2ccc(NC3CCNCC3)cc12` [Example 30, [3-(1-Naphthylsulfonyl)-1H-indazol-5-yl]-piperidin-4-ylamine Dihydrochloride]: 0.01 to 10 nM. Regarding `O=S(=O)(c1cccc(F)c1)c1n[nH]c2ccc(NC3CCNCC3)cc12` [Example 45, 3-[(3-fluorophenyl)sulfonyl]-N-piperidin-4-yl-1H-indazol-5-amine], the Ki is 0.01 to 10 nM. Molecule `CC(C)N1CCC(Oc2ccc3[nH]nc(S(=O)(=O)c4cccc5ccccc45)c3c2)C1` (centres unmarked) [Example 4, 5-(1-Isopropyl-pyrrolidin-3-yloxy)-3-(naphthalene-1-sulfonyl)-1H-indazole Hydrochloride] registered a Ki of 0.01 to 10 nM. The same measure, in the same setting: next, `O=C(Nc1ccc2[nH]nc(S(=O)(=O)c3cccc4ccccc34)c2c1)C1CCNCC1` [Example 52, N-[3-(1-Naphthylsulfonyl)-1H-indazol-5-yl]piperidine-4-carboxamide Hydrochloride]: 0.01 to 10 nM; `O=S(=O)(c1cccc2ccccc12)c1n[nH]c2cccc(NC3CCCNC3)c12` (centres unmarked) [Example 40, 3-(1-Naphthylsulfonyl)-N-piperidin-3-yl-1H-indazol-4-amine Dihydrochloride]: 0.01 to 10 nM; `O=S(=O)(c1cccc2ccccc12)c1n[nH]c2cccc(NCC3CCNCC3)c12` [Example 41, 3-(1-Naphthylsulfonyl)-N-(piperidin-4-ylmethyl)-1H-indazol-4-amine Dihydrochloride]: 0.01 to 10 nM.

Molecule `Cc1ccc(S(=O)(=O)c2n[nH]c3ccc(OC4CCNCC4)cc23)c2ccccc12` [Example 18, 3-[(4-methyl-1-naphthyl)sulfonyl]-5-(piperidin-4-yloxy)-1H-indazole] displayed a Ki of 0.01 to 10 nM. On the same count and under the same terms, under `CCCCN1CCC(Oc2ccc3[nH]nc(S(=O)(=O)c4cccc5ccccc45)c3c2)C1` (centres unmarked) [Example 2, 5-(1-Butylpyrrolidin-3-yloxy)-3-(1-naphthylsulfonyl)-1H-indazole Hydrochloride] stands 0.01 to 10 nM; under `CC(C)c1ccc(S(=O)(=O)c2n[nH]c3ccc(NC4CCNCC4)cc23)cc1` [Example 47, 3-[(4-isopropylphenyl)sulfonyl]-N-piperidin-4-yl-1H-indazol-5-amine], 0.01 to 10 nM. On the same count and under the same terms, under `CN1CCC(Oc2ccc3[nH]nc(S(=O)(=O)c4cccc5ccccc45)c3c2)C1` (centres unmarked) [Example 5, 5-(1-Methyl-pyrrolidin-3-yloxy)-3-(naphthalene-1-sulfonyl)-1H-indazole Hydrochloride] stands 0.01 to 10 nM; under `Cc1cccc(S(=O)(=O)c2n[nH]c3ccc(OC4CCNCC4)cc23)c1` [Example 12, 3-[(3-methylphenyl)sulfonyl]-5-(piperidin-4-yloxy)-1H-indazole], 0.01 to 10 nM; under `COc1cccc(S(=O)(=O)c2n[nH]c3ccc(OC4CCNCC4)cc23)c1` [Example 13, 3-[(3-methoxyphenyl)sulfonyl]-5-(piperidin-4-yloxy)-1H-indazole], 0.01 to 10 nM. On the same count and under the same terms, next, `O=S(=O)(c1ccccc1)c1n[nH]c2ccc(OC3CCNCC3)cc12` [Example 7, 3-(phenylsulfonyl)-5-(piperidin-4-yloxy)-1H-indazole]: 11 to 25 nM.

Test system in a further series: not given
Test: not given
With `CN1CCC(Oc2ccc3[nH]nc(S(=O)(=O)c4cccc5ccccc45)c3c2)CC1` (as salt: hydrochloride) [Example 21, 5-(1-Methylpiperidin-4-yloxy)-3-(1-naphthylsulfonyl)-1H-indazole Hydrochloride], the melting point (usually the temperature, or range, at which the solid turns liquid) is 252 to 254 °C. Consider `O=S(=O)(c1cccc2ccccc12)c1n[nH]c2ccc(OCC3CCCNC3)cc12` (centres unmarked) [Example 28, 3-(1-Naphthylsulfonyl)-5-(piperidin-3-ylmethoxy)-1H-indazole], for which the melting point lay within 168 to 170 °C. Consider `O=S(=O)(c1cccc2ccccc12)c1n[nH]c2ccc(OC3CCNCC3)cc12` (as salt: hydrochloride) [Example 6, 3-(1-Naphthylsulfonyl)-5-(piperidin-4-yloxy)-1H-indazole Hydrochloride], for which the melting point is 174 to 176 °C (dec.).

For `O=S(=O)(c1cccc2ccccc12)c1n[nH]c2ccc(OC3CCNC3)cc12` (centres unmarked) (as salt: hydrochloride) [Example 1, 3-(Naphthalene-1-sulfonyl)-5-(pyrrolidin-3-yloxy)-1H-indazole], the melting point was 168 to 170 °C (dec.).
